The EC50 is the concentration giving half of the maximal effect. By AC50 is commonly meant the midpoint of the concentration-response curve, whichever way the signal moves. As a reminder, the IC50 is the point on the concentration scale where inhibition reaches its midpoint.

Each structure is given as a SMILES string. Activity calls are given as the source filed them.

Tested on in one experiment: not listed separately
The experiment in a line: Luminescence Cell-Based Dose Confirmation HTS to Identify Activators of 5'UTR Stem-Loop Driven Alpha-Synuclein mRNA Translation in H4 Neuroglioblastoma Cells. [Related pubchem assays: 1829 (Project Summary), 1814 (Primary HTS)]. The class given is functional.
Settings: not given
For the molecule `COC(=O)c1cn(CCOc2ccccc2)c2ccccc12`, the EC50 is 6.67 µM (active).
Consider `Cn1nnnc1SCC(=O)Nc1nc2ccccc2s1`, for which the concentration giving a half-maximal response (EC50) is 8.16 µM (active).
Same read-out and setting: then `COc1c2c(cc3oc(=O)c4c5ccc(O)cc5oc4c13)OC(C)(C)CC2` [ISOGLYCYROL], with 0.274 µM (active).

Tested on in another experiment: not listed separately
The experiment in a line: Luminescence Cell-Based Dose Response HTS to Identify Activators of Luciferase Translation or Activity in H4 […] Cells. [Related pubchem assays: 1829 (Project Summary), 1814 (Primary HTS)]. The class given is functional.
Settings: not given
For `COC(=O)c1cn(CCOc2ccccc2)c2ccccc12`, the EC50 was 10.2 µM (active).
`Cn1nnnc1SCC(=O)Nc1nc2ccccc2s1`: the EC50 was 8.98 µM (active).
Still for that read-out and setting: to `COc1c2c(cc3oc(=O)c4c5ccc(O)cc5oc4c13)OC(C)(C)CC2` [ISOGLYCYROL] belongs 3.13 µM (active).

The test system of another experiment is H4. Put plainly: Luminescence Cell-Based Dose Response HTS to Identify Activators of 5'UTR Stem-Loop Driven Prion Protein mRNA Translation in H4 Neuroglioblastoma Cells. [Related pubchem assays: 1829 (Project Summary), 1814 (Primary HTS)]. Format: functional. Particulars: Homo sapiens.
As to `COC(=O)c1cn(CCOc2ccccc2)c2ccccc12`, the EC50 is 12.9 µM (active).
With `Cn1nnnc1SCC(=O)Nc1nc2ccccc2s1`, the EC50 is 33.4 µM (active).

For another experiment, the system named is INS1. The experiment in a line: INS-1E survival protection against cytokine death – cell-based, luminescence, retest, dose response (AID 449756).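 Further: cell death triggered by IL-1 beta plus TNF-alpha plus IFN-gamma mixture; protective hits raise ATP signal compared with cytokine alone wells.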 Format: functional. Particulars: Rattus norvegicus.
For `Cc1cc(O)c2c(c1)C(=O)C13C(=C2O)C(=O)[C@H]2[C@@H](O)[C@@H]1[C@H]1[C@H](O)[C@@H]3C(=O)C3=C(O)c4c(O)cc(C)cc4C(=O)C312` (stereo partly drawn), the AC50 was 7.65 µM (active).

The next experiment deals with T1, Fatty acid synthase (Homo sapiens, UniProt P49327). Put plainly: inhibition of human FAS-TE enzyme activity – biochemical, endpoint fluorescence intensity, uHTS hits, dose response (AID 624327).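 Further: fluorescence from hydrolysis of an O-methyl fluorescein acyl ester substrate by the enzyme.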 Format: functional.
T1 sequence (P49327 whole entry): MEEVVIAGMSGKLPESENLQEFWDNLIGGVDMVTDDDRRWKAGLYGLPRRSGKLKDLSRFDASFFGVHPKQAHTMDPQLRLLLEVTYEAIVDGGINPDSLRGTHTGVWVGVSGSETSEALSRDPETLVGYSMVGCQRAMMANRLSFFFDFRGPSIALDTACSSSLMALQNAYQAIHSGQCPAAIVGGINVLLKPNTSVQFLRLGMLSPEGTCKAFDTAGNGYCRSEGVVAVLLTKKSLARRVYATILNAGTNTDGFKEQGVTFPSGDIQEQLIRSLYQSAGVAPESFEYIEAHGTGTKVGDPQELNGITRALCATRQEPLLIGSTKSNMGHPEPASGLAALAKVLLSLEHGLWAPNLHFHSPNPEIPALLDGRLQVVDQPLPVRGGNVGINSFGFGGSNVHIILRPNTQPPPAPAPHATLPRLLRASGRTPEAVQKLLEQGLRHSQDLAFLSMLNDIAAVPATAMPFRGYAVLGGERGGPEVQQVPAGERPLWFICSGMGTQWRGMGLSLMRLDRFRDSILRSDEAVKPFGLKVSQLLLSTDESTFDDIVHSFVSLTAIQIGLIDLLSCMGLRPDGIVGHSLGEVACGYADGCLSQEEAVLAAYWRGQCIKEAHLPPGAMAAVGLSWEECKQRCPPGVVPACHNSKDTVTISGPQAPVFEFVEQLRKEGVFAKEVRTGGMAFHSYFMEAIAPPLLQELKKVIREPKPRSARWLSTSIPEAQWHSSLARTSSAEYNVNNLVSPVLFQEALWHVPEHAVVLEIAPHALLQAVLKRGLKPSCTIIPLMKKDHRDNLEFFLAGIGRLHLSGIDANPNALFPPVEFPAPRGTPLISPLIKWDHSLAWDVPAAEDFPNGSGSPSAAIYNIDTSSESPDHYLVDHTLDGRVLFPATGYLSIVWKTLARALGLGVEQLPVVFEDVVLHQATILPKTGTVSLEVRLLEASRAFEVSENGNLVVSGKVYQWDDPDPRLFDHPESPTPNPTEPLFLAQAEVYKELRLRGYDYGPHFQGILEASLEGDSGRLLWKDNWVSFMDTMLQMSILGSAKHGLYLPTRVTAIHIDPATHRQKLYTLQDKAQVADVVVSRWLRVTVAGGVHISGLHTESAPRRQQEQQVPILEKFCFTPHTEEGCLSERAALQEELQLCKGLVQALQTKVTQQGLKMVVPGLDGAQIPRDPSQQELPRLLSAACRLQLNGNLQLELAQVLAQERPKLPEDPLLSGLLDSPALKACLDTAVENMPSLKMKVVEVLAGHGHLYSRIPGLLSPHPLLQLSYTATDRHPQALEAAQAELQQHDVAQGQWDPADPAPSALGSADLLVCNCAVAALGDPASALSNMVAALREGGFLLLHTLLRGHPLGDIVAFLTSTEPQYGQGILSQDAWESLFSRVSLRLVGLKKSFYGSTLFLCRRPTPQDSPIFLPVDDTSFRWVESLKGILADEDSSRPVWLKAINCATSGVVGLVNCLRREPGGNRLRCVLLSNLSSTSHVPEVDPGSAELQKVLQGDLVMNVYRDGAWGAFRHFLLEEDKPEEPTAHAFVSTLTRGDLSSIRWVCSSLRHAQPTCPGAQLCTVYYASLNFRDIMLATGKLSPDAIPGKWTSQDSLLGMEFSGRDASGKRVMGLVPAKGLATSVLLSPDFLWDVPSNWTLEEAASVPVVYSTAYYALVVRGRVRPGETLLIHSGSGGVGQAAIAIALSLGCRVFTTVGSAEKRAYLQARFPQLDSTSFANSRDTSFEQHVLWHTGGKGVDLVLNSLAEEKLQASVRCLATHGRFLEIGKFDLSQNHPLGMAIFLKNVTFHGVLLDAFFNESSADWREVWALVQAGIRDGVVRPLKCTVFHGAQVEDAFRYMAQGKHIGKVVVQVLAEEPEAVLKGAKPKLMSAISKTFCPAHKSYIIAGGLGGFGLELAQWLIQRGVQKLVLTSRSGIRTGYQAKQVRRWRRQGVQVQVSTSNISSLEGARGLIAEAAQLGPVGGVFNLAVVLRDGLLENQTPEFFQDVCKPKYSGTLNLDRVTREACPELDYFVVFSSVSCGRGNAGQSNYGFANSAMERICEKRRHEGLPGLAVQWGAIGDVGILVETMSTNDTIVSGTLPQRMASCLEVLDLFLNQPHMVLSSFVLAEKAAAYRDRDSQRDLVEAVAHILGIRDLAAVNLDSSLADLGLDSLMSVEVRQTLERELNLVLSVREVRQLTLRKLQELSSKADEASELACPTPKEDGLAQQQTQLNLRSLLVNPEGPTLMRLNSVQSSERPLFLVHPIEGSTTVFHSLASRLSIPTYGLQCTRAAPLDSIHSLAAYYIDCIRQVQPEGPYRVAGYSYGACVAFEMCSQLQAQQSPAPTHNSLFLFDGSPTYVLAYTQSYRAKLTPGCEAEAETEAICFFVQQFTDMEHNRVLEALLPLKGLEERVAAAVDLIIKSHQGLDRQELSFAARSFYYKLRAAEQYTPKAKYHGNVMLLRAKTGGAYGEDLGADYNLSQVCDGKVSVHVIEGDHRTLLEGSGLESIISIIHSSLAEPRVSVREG
Settings: not given
Regarding `COc1ccccc1N1CCN(C(=O)C(C)NC(=O)c2cccc([N+](=O)[O-])c2)CC1` (stereo not drawn), the half-maximal inhibitory concentration (IC50) is 2.72 µM (active).
The same measure, in the same setting: then `CCCOc1ccc(NC(=O)CC2C(=O)N(CC)C(=S)N2Cc2cccs2)cc1` (stereo not drawn), with 12.4 µM (active).
On the same count and under the same terms, to `O=C(Nn1c(-c2ccc(Br)cc2)nc2ccccc2c1=O)c1ccc([N+](=O)[O-])cc1` belongs 8.68 µM (active); to `O=C(/C=C/c1cccc([N+](=O)[O-])c1)N1CCN(c2ccc(F)cc2)CC1`, 2.32 µM (active); to `O=[N+]([O-])c1ccc(Cl)c(S(=O)(=O)Nc2ccc(-c3ccc(N4CCCC4)nn3)cc2)c1`, 8.93 µM (active).
The same measure, in the same setting: to `CC1CCc2c(C(=O)Oc3cccc(-n4cnnn4)c3)csc2C1` (stereo not drawn) belongs 1.71 µM (active); to `O=C(NCCC1=CCCCC1)c1ccc(Cl)c([N+](=O)[O-])c1`, 11.7 µM (active).
In the case of `CC(C)(C)N1C(=O)[C@H]2[C@@H](c3ccc(Br)cc3)N3C(=O)N(c4cccc(F)c4)C(=O)[C@@]3(Cc3ccccc3)[C@H]2C1=O`, the IC50 was 19.8 µM (active).
Same read-out and setting: then `CC(=O)c1cccc(-c2ccnc3c2CC(C(=O)Nc2cccc(OC(F)(F)F)c2)O3)c1` (stereo not drawn), with 9.72 µM (active); and `Cc1noc(C)c1NC(=O)Nc1cccc2c1O[C@H](CN(C)C(=O)NC1CCCCC1)[C@@H](C)CN([C@H](C)CO)C2=O`, with 2.47 µM (active); and `O=C(CC1C[C@H](C(=O)N2CCOCC2)[C@@]2(CCC3CCCC3)c3[nH]c4ccccc4c3CCN2C1=O)NCc1cccc(C(F)(F)F)c1` (stereo partly drawn), with 4.98 µM (active).
Turning to `CCCCC(=O)N/N=C/c1cc([N+](=O)[O-])ccc1N1CCOCC1`, the IC50 was 4.56 µM (active).

The target of a further experiment is T1, Fatty acid synthase. The experiment in a line: inhibition of human FAS-TE enzyme activity – biochemical, kinetic fluorescence intensity, dose response (AID 624326).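 Further: rate of fluorescence rise from hydrolysis of a fluorogenic O-methyl fluorescein ester substrate.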 Format: functional.
Settings: not given
For `COc1ccccc1N1CCN(C(=O)C(C)NC(=O)c2cccc([N+](=O)[O-])c2)CC1` (stereo not drawn), the IC50 is 1.48 µM (active).
Regarding `CCCOc1ccc(NC(=O)CC2C(=O)N(CC)C(=S)N2Cc2cccs2)cc1` (stereo not drawn), the IC50 was 10.9 µM (active).
Still for that read-out and setting: then `O=C(Nn1c(-c2ccc(Br)cc2)nc2ccccc2c1=O)c1ccc([N+](=O)[O-])cc1`, with 7.74 µM (active).
Still for that read-out and setting: then `O=C(/C=C/c1cccc([N+](=O)[O-])c1)N1CCN(c2ccc(F)cc2)CC1`, with 4.93 µM (active); and `O=[N+]([O-])c1ccc(Cl)c(S(=O)(=O)Nc2ccc(-c3ccc(N4CCCC4)nn3)cc2)c1`, with 11.3 µM (active).
Consider `CC1CCc2c(C(=O)Oc3cccc(-n4cnnn4)c3)csc2C1` (stereo not drawn), for which the IC50 was 1.36 µM (active).
Same read-out and setting: then `O=C(NCCC1=CCCCC1)c1ccc(Cl)c([N+](=O)[O-])c1`, with 9.92 µM (active); and `CC(C)(C)N1C(=O)[C@H]2[C@@H](c3ccc(Br)cc3)N3C(=O)N(c4cccc(F)c4)C(=O)[C@@]3(Cc3ccccc3)[C@H]2C1=O`, with 10.8 µM (active).
Same read-out and setting: to `CC(=O)c1cccc(-c2ccnc3c2CC(C(=O)Nc2cccc(OC(F)(F)F)c2)O3)c1` (stereo not drawn) belongs 6.27 µM (active).
`Cc1noc(C)c1NC(=O)Nc1cccc2c1O[C@H](CN(C)C(=O)NC1CCCCC1)[C@@H](C)CN([C@H](C)CO)C2=O`: the IC50 was 4.3 µM (active).
Same read-out and setting: then `O=C(CC1C[C@H](C(=O)N2CCOCC2)[C@@]2(CCC3CCCC3)c3[nH]c4ccccc4c3CCN2C1=O)NCc1cccc(C(F)(F)F)c1` (stereo partly drawn), with 8.04 µM (active); and `CCCCC(=O)N/N=C/c1cc([N+](=O)[O-])ccc1N1CCOCC1`, with 4.13 µM (active).
